Experimental data reported in ChEMBL document CHEMBL1138737, “High-resolution structures of human aldose reductase holoenzyme in complex with stereoisomers of the potent inhibitor Fidarestat: stereospecific interaction between the enzyme and a cyclic imide type inhibitor” (J Med Chem, 2004).

Target: Aldo-keto reductase family 1 member B1 (Homo sapiens, UniProt P15121)
Experiment: Binding affinity for human Aldose reductase 2 expressed in Escherichia coli

SMILES | IC50 [µM]
NC(=O)[C@H]1C[C@@]2(NC(=O)NC2=O)c2cc(F)ccc2O1 (mixture of isomers) | 40
NC(=O)[C@H]1C[C@]2(NC(=O)NC2=O)c2cc(F)ccc2O1 [(R,S)-FIDARESTAT] | 0.57
NC(=O)[C@@H]1C[C@@]2(NC(=O)NC2=O)c2cc(F)ccc2O1 [(S,R)-FIDARESTAT] | 11
NC(=O)[C@@H]1C[C@]2(NC(=O)NC2=O)c2cc(F)ccc2O1 [FIDARESTAT] | 0.03
